Measured values reported in publication PMC12155096 (International Journal of Molecular Sciences, 2025).
Structures can show the parent of a compound that is named as a salt. Where two headings read alike, the source gives them in different places.

How the values were obtained:
[1] = target: Photinus pyralis (firefly) luciferase (Photinus pyralis, UniProt P08659); assay: biochemical; assay type: biochemical
human CYP1A2 [2] = target: T1, human CYP1A2 (Homo sapiens, UniProt P05177)
T1 sequence (P05177 1-516): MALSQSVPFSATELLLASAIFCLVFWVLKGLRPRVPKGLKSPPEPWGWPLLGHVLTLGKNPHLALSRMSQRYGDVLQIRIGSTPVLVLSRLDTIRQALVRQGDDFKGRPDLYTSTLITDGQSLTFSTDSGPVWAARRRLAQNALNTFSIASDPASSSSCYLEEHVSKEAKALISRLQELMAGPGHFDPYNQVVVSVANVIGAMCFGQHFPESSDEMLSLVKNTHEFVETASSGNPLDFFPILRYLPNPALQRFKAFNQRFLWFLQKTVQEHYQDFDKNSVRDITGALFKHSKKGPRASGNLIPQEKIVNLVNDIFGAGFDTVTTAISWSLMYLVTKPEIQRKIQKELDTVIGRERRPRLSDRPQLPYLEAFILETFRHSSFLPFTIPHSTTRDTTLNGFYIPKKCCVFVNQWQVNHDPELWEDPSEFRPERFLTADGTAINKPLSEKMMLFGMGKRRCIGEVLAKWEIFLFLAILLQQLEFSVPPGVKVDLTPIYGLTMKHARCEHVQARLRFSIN

human CYP2C9 [3] = target: T2, human CYP2C9 (Homo sapiens, UniProt P11712)
human CYP2C19 [4] = target: T3, human CYP2C19 (Homo sapiens, UniProt P33261)
human CYP2D6 = human CYP2D6 (Homo sapiens, UniProt P10635)
CYP3A4 = CYP3A4 (Homo sapiens, UniProt P08684)
human CYP2C9 [5] = target: T2, human CYP2C9; assay: biochemical
human CYP2C19 [6] = target: T3, human CYP2C19; assay: biochemical
human CYP1A2 [7] = target: T1, human CYP1A2; assay: biochemical; conditions: CYP1A2 IC50
[8] = CYP2C9 IC50 (half-maximal inhibitory concentration)
[9] = CYP2C19 IC50 (half-maximal inhibitory concentration)

human CYP2D6, sequence (P10635 whole entry): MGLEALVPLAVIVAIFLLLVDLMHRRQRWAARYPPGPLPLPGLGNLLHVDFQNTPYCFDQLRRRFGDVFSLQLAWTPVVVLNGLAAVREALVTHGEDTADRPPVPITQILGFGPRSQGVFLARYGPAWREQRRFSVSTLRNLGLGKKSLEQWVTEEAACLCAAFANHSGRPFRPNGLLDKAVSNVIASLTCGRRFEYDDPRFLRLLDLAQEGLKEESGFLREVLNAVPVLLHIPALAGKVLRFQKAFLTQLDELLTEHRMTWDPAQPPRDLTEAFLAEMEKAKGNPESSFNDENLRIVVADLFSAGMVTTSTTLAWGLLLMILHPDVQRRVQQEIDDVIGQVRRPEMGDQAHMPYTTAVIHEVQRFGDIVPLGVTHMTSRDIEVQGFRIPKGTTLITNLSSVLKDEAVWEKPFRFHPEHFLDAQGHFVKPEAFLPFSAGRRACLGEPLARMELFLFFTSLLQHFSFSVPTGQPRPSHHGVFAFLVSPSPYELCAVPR
CYP3A4, sequence (P08684 whole entry): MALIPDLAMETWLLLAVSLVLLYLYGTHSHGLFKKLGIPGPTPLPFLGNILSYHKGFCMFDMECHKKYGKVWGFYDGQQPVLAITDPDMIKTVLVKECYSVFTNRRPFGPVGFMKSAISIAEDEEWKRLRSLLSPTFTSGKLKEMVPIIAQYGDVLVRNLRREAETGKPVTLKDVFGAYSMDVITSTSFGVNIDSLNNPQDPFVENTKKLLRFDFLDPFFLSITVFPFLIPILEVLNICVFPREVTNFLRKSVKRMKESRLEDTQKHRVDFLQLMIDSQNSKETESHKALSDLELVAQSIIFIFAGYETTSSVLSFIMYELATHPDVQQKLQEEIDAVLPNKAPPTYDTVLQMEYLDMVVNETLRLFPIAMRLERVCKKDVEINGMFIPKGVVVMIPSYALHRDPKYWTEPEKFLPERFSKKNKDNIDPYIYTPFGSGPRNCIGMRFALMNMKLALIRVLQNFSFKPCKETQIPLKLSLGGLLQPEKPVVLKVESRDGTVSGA
T2 sequence (P11712 whole entry): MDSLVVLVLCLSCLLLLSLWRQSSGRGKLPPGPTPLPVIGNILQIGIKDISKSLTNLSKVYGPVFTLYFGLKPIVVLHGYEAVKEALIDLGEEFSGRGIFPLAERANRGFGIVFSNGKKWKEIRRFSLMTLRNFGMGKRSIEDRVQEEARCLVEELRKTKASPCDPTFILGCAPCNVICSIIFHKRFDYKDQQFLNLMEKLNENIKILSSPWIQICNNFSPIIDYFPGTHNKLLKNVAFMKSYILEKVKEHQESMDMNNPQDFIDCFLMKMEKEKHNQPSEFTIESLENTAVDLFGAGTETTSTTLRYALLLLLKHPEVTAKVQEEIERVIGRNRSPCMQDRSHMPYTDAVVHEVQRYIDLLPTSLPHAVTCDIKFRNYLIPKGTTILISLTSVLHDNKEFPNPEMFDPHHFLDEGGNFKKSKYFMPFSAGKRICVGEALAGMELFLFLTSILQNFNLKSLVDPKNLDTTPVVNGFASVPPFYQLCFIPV
Photinus pyralis (firefly) luciferase, sequence (P08659 whole entry): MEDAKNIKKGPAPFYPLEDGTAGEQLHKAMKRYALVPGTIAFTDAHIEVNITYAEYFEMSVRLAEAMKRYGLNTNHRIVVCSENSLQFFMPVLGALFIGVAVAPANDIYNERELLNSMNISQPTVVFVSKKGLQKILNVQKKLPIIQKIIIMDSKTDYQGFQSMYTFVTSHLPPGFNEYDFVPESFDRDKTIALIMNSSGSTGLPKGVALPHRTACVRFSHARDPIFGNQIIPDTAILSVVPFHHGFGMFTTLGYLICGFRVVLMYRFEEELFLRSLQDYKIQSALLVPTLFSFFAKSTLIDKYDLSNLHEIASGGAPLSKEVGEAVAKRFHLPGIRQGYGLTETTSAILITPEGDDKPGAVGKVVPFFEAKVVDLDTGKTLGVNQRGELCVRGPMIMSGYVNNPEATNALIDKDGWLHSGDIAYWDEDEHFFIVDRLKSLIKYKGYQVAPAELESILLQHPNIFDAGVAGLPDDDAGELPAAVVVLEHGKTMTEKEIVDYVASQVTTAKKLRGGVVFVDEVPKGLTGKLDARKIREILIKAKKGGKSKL
T3 sequence (P33261 whole entry): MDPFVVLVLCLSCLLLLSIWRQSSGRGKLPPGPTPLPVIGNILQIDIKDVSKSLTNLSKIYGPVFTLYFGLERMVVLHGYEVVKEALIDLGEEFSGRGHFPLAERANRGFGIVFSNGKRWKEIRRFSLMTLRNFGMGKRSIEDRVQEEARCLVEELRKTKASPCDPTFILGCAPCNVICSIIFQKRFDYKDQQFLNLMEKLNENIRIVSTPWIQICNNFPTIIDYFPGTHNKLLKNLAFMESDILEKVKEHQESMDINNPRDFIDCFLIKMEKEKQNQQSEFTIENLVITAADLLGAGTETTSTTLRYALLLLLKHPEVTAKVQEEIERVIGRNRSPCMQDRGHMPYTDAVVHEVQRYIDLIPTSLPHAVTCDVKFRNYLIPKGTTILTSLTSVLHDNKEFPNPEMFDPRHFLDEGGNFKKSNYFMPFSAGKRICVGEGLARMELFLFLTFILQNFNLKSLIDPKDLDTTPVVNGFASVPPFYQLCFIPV

CCCCCCCCCCCCCCCC[N+](C)(C)C.[Cl-] [Hexadecyl trimethyl ammonium chloride]
Luciferase IC50 [1]: Inactive | CYP1A2 IC50 (human CYP1A2 [2]): Inactive | CYP2C9 IC50 (human CYP2C9 [3]): Inactive | CYP2C19 Efficacy (human CYP2C19 [4]): 43.2 ± 0.0 (-68 ± 16) % | CYP2D6 Efficacy (human CYP2D6): 0.8 ± 0.05 (-93 ± 8) %

C=CCOC(Cn1ccnc1)c1ccc(Cl)cc1Cl.O=S(=O)(O)O (centres unmarked) [Imazalil sulfate]
Luciferase IC50 (half-maximal inhibitory concentration) [1]: Inactive | CYP2C9 Efficacy (in parenthesis) (human CYP2C9 [3]): 0.63 ± 0.18 (-107 ± 5) % | IC50 (human CYP2C9 [3]): 0.63 µM | CYP2C19 Efficacy (in parenthesis) (human CYP2C19 [4]): 0.22 ± 0.08 (-143 ± 13) % | IC50 (human CYP2C19 [4]): 0.22 µM | CYP2D6 Efficacy (in parenthesis) (human CYP2D6): 5.1 ± 0.35 (-106 ± 4) % | IC50 (human CYP2D6): 5.1 µM | CYP3A4 Efficacy (in parenthesis) (CYP3A4): 0.12 ± 0.02 (-91 ± 3) % | IC50 (CYP3A4): 0.12 µM

CCC(C)n1ncn(-c2ccc(N3CCN(c4ccc(OCC5COC(Cn6cncn6)(c6ccc(Cl)cc6Cl)O5)cc4)CC3)cc2)c1=O (centres unmarked) [Itraconazole]
Luciferase IC50 (half-maximal inhibitory concentration) [1]: Inactive | CYP1A2 IC50 (half-maximal inhibitory concentration) (human CYP1A2 [2]): Inactive | CYP2C9 Efficacy (in parenthesis) (human CYP2C9 [3]; human): 14.05 ± 3.21 (-81 ± 13) % | CYP2C19 Efficacy (in parenthesis) (human CYP2C19 [4]; human): 8.3 ± 4.22 (-53 ± 15) % | CYP2D6 IC50 (half-maximal inhibitory concentration) (human CYP2D6): Inactive | IC50 (human CYP2C9 [5]; [8]): 14 µM | IC50 (human CYP2C19 [6]; [9]): 8.3 µM

Cc1ccc2nc(N)[nH]c(=O)c2c1Sc1ccncc1.Cl.Cl [Nolatrexed dihydrochloride]
Luciferase IC50 [1]: Inactive | CYP1A2 Efficacy (human CYP1A2 [2]): 3.33 ± 0.9 (-94 ± 12) % | CYP2C9 Efficacy (human CYP2C9 [3]): 4.82 ± 1.17 (-95 ± 9) % | CYP2C19 Efficacy (human CYP2C19 [4]): 3.3 ± 1.68 (-116 ± 1) % | CYP2D6 Efficacy (human CYP2D6): 14.43 ± 1.84 (-95 ± 12) %

NS(=O)(=O)C(F)(F)C(F)(F)C(F)(F)C(F)(F)C(F)(F)C(F)(F)C(F)(F)C(F)(F)F [PFOSA]
Luciferase IC50 (half-maximal inhibitory concentration) [1]: Inactive | CYP1A2 IC50 (half-maximal inhibitory concentration) (human CYP1A2 [2]): Inactive | CYP2D6 IC50 (half-maximal inhibitory concentration) (human CYP2D6): Inactive | CYP3A4 IC50 (half-maximal inhibitory concentration) (CYP3A4): Inactive | IC50 (human CYP2C9 [5]; [8]): 0.71 µM | IC50 (human CYP2C19 [6]; [9]): 64.3 µM

CSc1ccc2c(c1)N(CCC1CCCCN1C)c1ccccc1S2 (centres unmarked) [Thioridazine hydrochloride]
Luciferase IC50 (half-maximal inhibitory concentration) [1]: Inactive

Clc1ccccc1CN1CCc2sccc2C1 [Ticlopidine hydrochloride]
IC50 [1]: 8.71 µM

CCCCCCCCCCCCCCCCCC(=O)O.OCCN(CCO)CCO [Triethanolamine stearate]
Luciferase Efficacy (in parenthesis) [1]: 74.82 ± 6.08 (-26 ± 14) % | IC50 ([1]; read-out: Luciferase IC50 (half-maximal inhibitory concentration)): 74.8 µM | CYP1A2 Efficacy (in parenthesis) (human CYP1A2 [2]): 3.98 ± 2.02 (-97 ± 4) % | IC50 (human CYP1A2 [2]): 3.98 µM | CYP2C9 Efficacy (in parenthesis) (human CYP2C9 [3]): 1.38 ± 0.34 (-98 ± 6) % | IC50 (human CYP2C9 [3]): 1.38 µM | CYP2C19 Efficacy (in parenthesis) (human CYP2C19 [4]): 0.42 ± 0.18 (-127 ± 1) % | IC50 (human CYP2C19 [4]): 0.42 µM | CYP2D6 Efficacy (in parenthesis) (human CYP2D6): 35.34 ± 0 (-82 ± 6) % | IC50 (human CYP2D6): 35.3 µM

CC(CN(C)C)CN1c2ccccc2Sc2ccccc21.CC(CN(C)C)CN1c2ccccc2Sc2ccccc21.O=C(O)C(O)C(O)C(=O)O (centres unmarked) [Trimeprazine tartrate]
Luciferase IC50 (half-maximal inhibitory concentration) [1]: Inactive

CCOc1ccccc1OCC1CNCCO1 (centres unmarked) [Viloxazine hydrochloride]
Luciferase IC50 (half-maximal inhibitory concentration) [1]: Inactive

Cl[C@H]1[C@H](Cl)[C@@H](Cl)[C@H](Cl)[C@@H](Cl)[C@@H]1Cl [beta-Hexachlorocyclohexane]
Luciferase IC50 [1]: Inactive | CYP2D6 IC50 (human CYP2D6): Inactive | IC50 (human CYP1A2 [7]): 1.14 µM | IC50 (human CYP2C9 [5]; CYP2C9 IC50): 4.17 µM | IC50 (human CYP2C19 [6]; CYP2C19 IC50): 1.96 µM

CC(C)c1nc(CN(C)C(=O)N[C@H](C(=O)N[C@@H](Cc2ccccc2)C[C@H](O)[C@H](Cc2ccccc2)NC(=O)OCc2cncs2)C(C)C)cs1 [ritonavir, reference compound]
Luciferase IC50 (half-maximal inhibitory concentration) [1]: Inactive

Diniconazole
Luciferase IC50 (half-maximal inhibitory concentration) [1]: Inactive

HMR1171 trifluoroacetate (1:1)
Luciferase IC50 [1]: Inactive | CYP1A2 IC50 (human CYP1A2 [2]): Inactive | IC50 (human CYP2C9 [3]): 28.1 µM | IC50 (human CYP2C19 [4]): 28.3 µM | IC50 (human CYP2D6): 8.87 µM

Kadethrin
Luciferase IC50 [1]: Inactive
